Test results published in ChEMBL document CHEMBL3774345, “Synthesis of new diarylamides with pyrimidinyl pyridine scaffold and evaluation of their anti-proliferative effect on cancer cell lines” (Bioorg Med Chem Lett, 2016).

How the values were obtained:
Assay type in all cases: functional
A498 = assay: Cytotoxicity against human A498 cells assessed as cell growth at 10^-8 M after 24 hrs by SRB assay; conditions: A498, 24 h, read-out: Activity
KM12 = assay: Cytotoxicity against human KM12 cells assessed as cell growth at 10^-8 M after 24 hrs by SRB assay; conditions: KM12, 24 h, read-out: Activity
[1] = Cytotoxicity against human SNB19 cells assessed as cell growth at 10^-4 M after 24 hrs by SRB assay; conditions: SNB-19, 24 h, read-out: Activity
SR = assay: Cytotoxicity against human SR cells assessed as cell growth at 10^-8 M after 24 hrs by SRB assay; conditions: read-out: Activity
NCI-H23 [2] = assay: Cytotoxicity against human NCI-H23 cells assessed as cell growth at 10^-4 M after 24 hrs by SRB assay; conditions: NCI-H23, 24 h, read-out: Activity
[3] = Cytotoxicity against human HCT15 cells assessed as cell growth at 10^-7 M after 24 hrs by SRB assay; conditions: HCT-15, 24 h, read-out: Activity
MDA-MB-435 [4] = assay: Cytotoxicity against human MDA-MB-435 cells assessed as cell growth at 10^-5 M after 24 hrs by SRB assay; conditions: MDA-MB-435, 24 h, read-out: Activity
[5] = Cytotoxicity against human COLO205 cells assessed as cell growth at 10^-4 M after 24 hrs by SRB assay; conditions: COLO 205, 24 h, read-out: Activity
U-251 = assay: Cytotoxicity against human U251 cells assessed as cell growth at 10^-8 M after 24 hrs by SRB assay; conditions: U-251, 24 h, read-out: Activity
[6] = Cytotoxicity against human SF539 cells assessed as cell growth at 10^-4 M after 24 hrs by SRB assay; conditions: SF-539, 24 h, read-out: Activity
ACHN [7] = assay: Cytotoxicity against human ACHN cells assessed as cell growth at 10^-8 M after 24 hrs by SRB assay; conditions: read-out: Activity
SN12C [8] = assay: Cytotoxicity against human SN12C cells assessed as cell growth at 10^-7 M after 24 hrs by SRB assay; conditions: read-out: Activity
A549 = assay: Cytotoxicity against human A549 cells after 24 hrs by SRB assay; conditions: A549, 24 h
[9] = Cytotoxicity against human SF268 cells assessed as cell growth at 10^-8 M after 24 hrs by SRB assay; conditions: SF-268, 24 h, read-out: Activity
[10] = Cytotoxicity against human UACC257 cells after 24 hrs by SRB assay; conditions: UACC-257, 24 h
[11] = Cytotoxicity against human HL-60(TB) cells assessed as cell growth at 10^-4 M after 24 hrs by SRB assay; conditions: HL-60, 24 h, read-out: Activity
NCI-H226 = assay: Cytotoxicity against human NCI-H226 cells assessed as cell growth at 10^-7 M after 24 hrs by SRB assay; conditions: NCI-H226, 24 h, read-out: Activity
MCF7 = assay: Cytotoxicity against human MCF7 cells assessed as cell growth at 10^-8 M after 24 hrs by SRB assay; conditions: MCF7, 24 h, read-out: Activity
[12] = Cytotoxicity against human IGROV1 cells assessed as cell growth at 10^-7 M after 24 hrs by SRB assay; conditions: IGROV-1, 24 h, read-out: Activity
M14 [13] = assay: Cytotoxicity against human M14 cells assessed as cell growth at 10^-7 M after 24 hrs by SRB assay; conditions: M14, 24 h, read-out: Activity
[14] = Cytotoxicity against human IGROV1 cells assessed as cell growth at 10^-4 M after 24 hrs by SRB assay; conditions: IGROV-1, 24 h, read-out: Activity
ACHN [15] = assay: Cytotoxicity against human ACHN cells assessed as cell growth at 10^-4 M after 24 hrs by SRB assay; conditions: read-out: Activity
NCI-H23 [16] = assay: Cytotoxicity against human NCI-H23 cells assessed as cell growth at 10^-7 M after 24 hrs by SRB assay; conditions: NCI-H23, 24 h, read-out: Activity
NCI-H460 = assay: Cytotoxicity against human NCI-H460 cells after 24 hrs by SRB assay; conditions: NCI-H460, 24 h
SK-MEL-2 = assay: Cytotoxicity against human SK-MEL-2 cells assessed as cell growth at 10^-5 M after 24 hrs by SRB assay; conditions: SK-MEL-2, 24 h, read-out: Activity
[17] = Cytotoxicity against human HL-60(TB) cells assessed as cell growth at 10^-7 M after 24 hrs by SRB assay; conditions: HL-60, 24 h, read-out: Activity
[18] = Cytotoxicity against human PC3 cells assessed as cell growth at 10^-6 M after 24 hrs by SRB assay; conditions: PC-3, 24 h, read-out: Activity
[19] = Cytotoxicity against human NCI-ADR-RES cells assessed as cell growth at 10^-4 M after 24 hrs by SRB assay; conditions: read-out: Activity
MDA-MB-435 [20] = assay: Cytotoxicity against human MDA-MB-435 cells assessed as cell growth at 10^-6 M after 24 hrs by SRB assay; conditions: MDA-MB-435, 24 h, read-out: Activity
[21] = Cytotoxicity against human RXF393 cells assessed as cell growth at 10^-7 M after 24 hrs by SRB assay; conditions: RXF 393, 24 h, read-out: Activity
M14 [22] = assay: Cytotoxicity against human M14 cells assessed as cell growth at 10^-6 M after 24 hrs by SRB assay; conditions: M14, 24 h, read-out: Activity
[23] = Cytotoxicity against human Caki1 cells assessed as cell growth at 10^-4 M after 24 hrs by SRB assay; conditions: CAKI-1, 24 h, read-out: Activity
SN12C [24] = assay: Cytotoxicity against human SN12C cells after 24 hrs by SRB assay
[25] = Cytotoxicity against human MOLT4 cells assessed as cell growth at 10^-8 M after 24 hrs by SRB assay; conditions: MOLT-4, 24 h, read-out: Activity
NCI-H322M = assay: Cytotoxicity against human NCI-H322M cells assessed as cell growth at 10^-4 M after 24 hrs by SRB assay; conditions: read-out: Activity
[26] = Cytotoxicity against human NCI-ADR-RES cells assessed as cell growth at 10^-7 M after 24 hrs by SRB assay; conditions: read-out: Activity
[27] = Cytotoxicity against human Hs 578T cells assessed as cell growth at 10^-8 M after 24 hrs by SRB assay; conditions: read-out: Activity
[28] = read-out: LC50 (the source's name)
[29] = read-out: pLC50 (the source's name) (converted)

For `O=C(Nc1cc(-c2cccnc2)nc(NCCCN2CCOCC2)n1)c1cc(Br)cc(C(F)(F)F)c1`, the growth at 0.01 µM (A498) was 91%, the growth at 0.01 µM (KM12) was 99% and the growth at 100 µM [1] was -84%. The growth at 0.01 µM (SR) was 106%, the growth at 100 µM (NCI-H23 [2]) was -85% and the growth at 0.1 µM [3] was 92%. For the same compound, the growth at 10 µM (MDA-MB-435 [4]) was -90%, the growth at 100 µM [5] was -88% and the growth at 0.01 µM (U-251) was 97%. The growth at 100 µM [6] was -85%, the growth at 0.01 µM (ACHN [7]) was 95% and the growth at 0.1 µM (SN12C [8]) was 98%. For the same compound, the GI50 (A549; read-out: GI50) was 10.1 µM, the CC50 (A549; [28]) was 48.8 µM and the TGI (A549; read-out: TGI) was 22.2 µM. It also gave a GI50 (A549; read-out: pGI50 (converted)) of 10 µM, a CC50 (A549; [29]) of 49 µM and a TGI (A549; read-out: pTGI (converted)) of 22.4 µM. For the same compound, the growth at 0.01 µM [9] was 97%, the GI50 ([10]; read-out: GI50) was 2.1 µM and the CC50 [10, 28] was 6.8 µM. For the same compound, the TGI ([10]; read-out: TGI) was 3.78 µM, the GI50 ([10]; read-out: pGI50 (converted)) was 2.09 µM and the CC50 [10, 29] was 6.76 µM. For the same compound, the TGI ([10]; read-out: pTGI (converted)) was 3.8 µM, the growth at 100 µM [11] was -51% and the growth at 0.1 µM (NCI-H226) was 93%. It also gave a growth at 0.01 µM (MCF7) of 95%, a growth at 0.1 µM [12] of 108% and a growth at 0.1 µM (M14 [13]) of 95%. For the same compound, the growth at 100 µM [14] was -72%, the growth at 100 µM (ACHN [15]) was -79% and the growth at 0.1 µM (NCI-H23 [16]) was 98%. For the same compound, the GI50 (NCI-H460; read-out: GI50) was 2.97 µM, the CC50 (NCI-H460; [28]) was 44.1 µM and the TGI (NCI-H460; read-out: TGI) was 8.94 µM. The GI50 (NCI-H460; read-out: pGI50 (converted)) was 2.95 µM, the CC50 (NCI-H460; [29]) was 43.7 µM and the TGI (NCI-H460; read-out: pTGI (converted)) was 8.91 µM. For the same compound, the growth at 10 µM (SK-MEL-2) was 27%, the growth at 0.1 µM [17] was 96% and the growth at 1 µM [18] was 92%. For the same compound, the growth at 100 µM [19] was -77%, the growth at 1 µM (MDA-MB-435 [20]) was 90% and the growth at 0.1 µM [21] was 97%. The growth at 1 µM (M14 [22]) was 87%, the growth at 100 µM [23] was -100% and the GI50 (SN12C [24]; read-out: GI50) was 7.74 µM. For the same compound, the CC50 (SN12C [24]; [28]) was 53.5 µM, the TGI (SN12C [24]; read-out: TGI) was 21.8 µM and the GI50 (SN12C [24]; read-out: pGI50 (converted)) was 7.76 µM. It also gave a CC50 (SN12C [24]; [29]) of 53.7 µM, a TGI (SN12C [24]; read-out: pTGI (converted)) of 22.4 µM and a growth at 0.01 µM [25] of 99%. It also gave a growth at 100 µM (NCI-H322M) of -90%, a growth at 0.1 µM [26] of 99% and a growth at 0.01 µM [27] of 93%.
